Results published in the supplement of paper PMC10307832.

Assays:
Experiment in all cases: relative viability (nuclei count vs DMSO), 5 days (fraction); higher = more cells survive
[1] = compound: COc1cc2nccc(Oc3ccc(NC(=O)C4(C(=O)Nc5ccc(F)cc5)CC4)cc3)c2cc1OC [Cabozantinib] + COc1cccc2cc(-c3nc([C@H]4CC[C@H](C(=O)O)CC4)n4ncnc(N)c34)[nH]c12 [OSI-027] (partner 0.5 µM)
How it was run: (§1)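 After 5 days of treatment, lung cancer cells in 1536-well plates were fixed and stained in a single step (final 0.05% Triton X-100, 1% formaldehyde, 1 ug/ml Hoechst) and their nuclei counted on 4× images. Treatment had been applied by pin tool the day after seeding as one drug alone or as a fixed anchor-drug dose with five library-drug doses (not always all listed) in √10 steps. Relative viability is the nuclei count of treated wells divided by that of vehicle wells, and values are medians of duplicate plates.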

[2] = compound: O[C@@H](COc1cccc2ncccc12)CN1CCN([C@@H]2c3ccccc3[C@@H]3[C@H](c4ccccc42)C3(F)F)CC1 [Zosuquidar] + Cc1nc(NC(=O)N2CCC[C@H]2C(N)=O)sc1-c1ccnc(C(C)(C)C(F)(F)F)c1 [Alpelisib] (partner 2 µM)
How it was run: as §1

[3] = compound: C1=CC(=CC=C1NC(=S)NNC2=C(C=C(C=C2[N+](=O)[O-])C(F)(F)F)[N+](=O)[O-])F [Kobe2602] + COc1cccc2cc(-c3nc([C@H]4CC[C@H](C(=O)O)CC4)n4ncnc(N)c34)[nH]c12 [OSI-027] (partner 0.5 µM)
How it was run: as §1

[4] = compound: C1=CC(=CC=C1NC(=S)NNC2=C(C=C(C=C2[N+](=O)[O-])C(F)(F)F)[N+](=O)[O-])F [Kobe2602] + O=C(CCCCCCC(=O)Nc1ccccc1)NO [Vorinostat] (partner 1 µM)
How it was run: as §1

Row | Cell Line | relative viability ([1]; first compound 0.02 µM) | relative viability ([1]; first compound 0.06325 µM) | relative viability ([1]; first compound 0.2 µM) | relative viability ([1]; first compound 0.6325 µM) | relative viability ([1]; first compound 2 µM) | relative viability ([2]; first compound 0.01 µM) | relative viability ([2]; first compound 0.03162 µM) | relative viability ([2]; first compound 0.1 µM) | relative viability ([2]; first compound 0.3162 µM) | relative viability ([2]; first compound 1 µM) | relative viability ([3]; first compound 0.2 µM) | relative viability ([3]; first compound 0.6325 µM) | relative viability ([3]; first compound 2 µM) | relative viability ([3]; first compound 6.325 µM) | relative viability ([3]; first compound 20 µM) | relative viability ([4]; first compound 0.2 µM) | relative viability ([4]; first compound 0.6325 µM) | relative viability ([4]; first compound 2 µM) | relative viability ([4]; first compound 6.325 µM) | relative viability ([4]; first compound 20 µM)
1 | NCI-H2023 | 0.308 | 0.39 | 0.322 | 0.327 | 0.235 | 0.601 | 0.636 | 0.6 | 0.548 | 0.613 | 0.394 | 0.387 | 0.346 | 0.345 | 0.278 | 0.56 | 0.75 | 0.566 | 0.481 | 0.317
2 | ABC-1 | 0.538 | 0.497 | 0.489 | 0.567 | 0.456 | 0.949 | 1.07 | 1.06 | 0.994 | 1.16 | 0.582 | 0.501 |  | 0.585 | 0.628 | 1.17 | 1.54 | 0.754 | 1.02 | 1.41
3 | IA-LM |  |  |  |  |  | 0.818 | 0.908 | 0.714 | 0.909 | 0.773 |  |  |  |  |  | 0.894 | 0.95 | 0.819 | 0.953 | 0.988
4 | NCI-H520 | 0.215 | 0.289 | 0.247 | 0.286 | 0.218 | 0.941 | 0.784 | 0.778 | 0.981 | 0.837 | 0.281 | 0.287 | 0.227 | 0.235 | 0.266 | 0.702 | 0.775 | 0.637 | 0.691 | 0.731
5 | NCI-H1915 | 0.627 | 0.623 | 0.631 | 0.589 | 0.593 | 1.04 | 1.1 | 0.989 | 1.06 | 1.08 | 0.596 | 0.71 | 0.612 | 0.656 | 0.643 | 0.523 | 0.549 | 0.478 | 0.534 | 0.557
6 | NCI-H1299 |  |  |  |  |  | 1.07 | 0.998 | 1.05 | 0.995 | 1.05 |  |  |  |  |  |  |  |  |  | 
7 | HCC-827 | 0.782 | 0.861 |  | 0.679 | 0.526 | 0.935 | 1.01 | 0.759 | 1.07 | 0.96 | 0.787 | 0.743 | 0.755 | 0.762 | 0.718 | 0.891 | 0.739 | 0.804 | 0.892 | 0.945
8 | EMC-BAC-2 | 0.337 | 0.379 | 0.398 | 0.385 | 0.361 | 0.715 | 0.793 | 0.677 | 0.82 | 0.761 | 0.365 | 0.512 | 0.381 | 0.413 | 0.421 | 0.494 | 1.01 | 0.425 | 0.593 | 0.462
9 | NCI-H650 |  | 0.567 | 0.552 | 0.544 | 0.535 | 1.15 | 0.94 |  | 1.09 | 1.28 | 0.514 | 0.593 | 0.477 | 0.529 | 0.527 | 0.466 | 0.411 | 0.421 | 0.499 | 0.434
10 | NCI-H1792 |  | 0.75 | 0.697 | 0.664 | 0.531 | 0.66 | 0.813 | 0.53 | 0.705 | 0.799 | 0.728 | 0.732 | 0.821 | 0.5 | 0.625 |  |  |  |  | 
11 | NCI-H2009 | 0.642 | 0.724 | 0.695 | 0.674 | 0.496 | 1.08 | 0.96 | 1.19 | 1.15 | 1.14 | 0.568 | 0.737 | 0.591 | 0.637 | 0.452 | 0.715 | 0.783 | 0.763 | 0.752 | 0.692
12 | SW 900 | 0.637 | 0.695 | 0.637 | 0.554 | 0.376 |  |  |  |  |  | 0.712 | 0.477 | 0.499 | 0.374 | 0.488 | 0.677 | 0.645 | 0.492 | 0.476 | 0.602
13 | NCI-H1563 | 0.762 | 0.743 | 0.757 | 0.718 | 0.684 | 0.935 | 0.988 | 0.904 | 0.988 | 0.921 | 0.721 | 0.743 | 0.797 | 0.757 | 0.754 |  |  |  |  | 
14 | NCI-H1650 | 0.597 | 0.724 | 0.438 | 0.622 | 0.484 |  |  |  |  |  | 0.546 | 0.756 | 0.546 | 0.631 | 0.676 | 0.598 | 0.617 | 0.642 | 0.539 | 0.527
15 | Calu-6 |  |  |  |  |  | 0.938 | 0.972 | 1.01 | 1.12 | 0.879 |  |  |  |  |  |  |  |  |  | 
16 | EBC-1 |  |  |  |  |  | 0.83 | 0.842 | 0.794 | 1.09 | 0.779 |  |  |  |  |  |  |  |  |  | 
17 | NCI-H2342 | 0.543 | 0.723 | 0.563 | 0.621 | 0.613 |  |  |  |  |  | 0.762 | 0.546 | 0.614 | 0.63 | 0.632 | 0.713 | 0.789 | 0.761 | 0.716 | 1.17
18 | NCI-H1703 |  |  |  |  |  | 0.355 | 0.325 | 0.237 | 0.438 | 0.345 |  |  |  |  |  |  |  |  |  | 
19 | ChaGo-K-1 | 0.426 | 0.589 | 0.562 | 0.603 | 0.505 |  |  |  |  |  | 0.485 | 0.543 | 0.622 | 0.541 | 0.47 | 0.813 | 0.812 | 0.766 | 0.708 | 0.697
20 | NCI-H1648 | 0.255 | 0.256 | 0.278 | 0.281 | 0.266 |  |  |  |  |  | 0.246 | 0.277 | 0.248 | 0.26 | 0.25 | 0.464 | 0.441 | 0.351 | 0.334 | 0.338
21 | NCI-H522 | 0.585 | 0.79 | 0.7 | 0.766 | 0.767 |  |  |  |  |  | 0.856 | 0.687 | 0.737 | 0.636 | 0.672 | 0.949 | 1.05 | 0.964 | 1 | 0.898
22 | A549 |  |  |  |  |  | 0.688 | 0.745 | 0.678 | 1.03 | 0.877 |  |  |  |  |  |  |  |  |  | 
